# Reference: patent US20200397808A1, “TREATMENT OF STEROID-RESISTANT DISEASE USING AN ANTHOCYANIN AND A CORTICOSTEROID” (THE CLEVELAND CLINIC FOUNDATION, priority 2017, published 2020)
# Columns and labels:
# [1] = target: T1, IL-17A and IL-17ARA (IL-17A receptor subunit) interaction (Homo sapiens, UniProt Q96F46); experiment: IL-17A binding to IL-17ARA inhibition; details: read-out: IC50, inhibitory activity for IL-17A binding to IL-17ARA
# T1 sequence (Q96F46 33-320 limits assumed): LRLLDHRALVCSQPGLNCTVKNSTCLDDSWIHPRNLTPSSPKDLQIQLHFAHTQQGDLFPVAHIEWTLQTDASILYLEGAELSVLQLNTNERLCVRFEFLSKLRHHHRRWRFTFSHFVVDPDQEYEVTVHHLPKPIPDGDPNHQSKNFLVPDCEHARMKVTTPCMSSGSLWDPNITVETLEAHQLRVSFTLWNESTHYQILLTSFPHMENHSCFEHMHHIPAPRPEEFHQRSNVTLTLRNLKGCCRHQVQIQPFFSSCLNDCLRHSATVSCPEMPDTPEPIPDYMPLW
# [2] = tested on: HDM-induced neutrophilic airway inflammation; experiment: HDM/CFA-induced acute neutrophilic steroid-resistant severe asthma model; type: in vivo, C57BL/6 mice; parameters: airway inflammation (BAL cell count, inflammatory gene expression in the lung): dose or concentration left out as unconfirmed
# Description: FIGS. 1A and 1B provide graphs showing C3G attenuates neutrophilic airway inflammation in a HDM-induced acute asthma model. A. HDM/CFA-induced neutrophilic asthma in 8-week female C57BL/6 mice (n=8 per group). B. Shown are total and differential cell counts in BAL cell count. HDM, house dust mite. […] DEX and C3G were delivered to mice 24 h before HDM sensitization and 1 h before HDM challenge. Mice were sacrificed after HDM challenge. i.p., intraperitoneally; i.n. intranasally.
# FIGS. 2A and 2B provide graphs showing Oral C3G attenuates neutrophilic airway inflammation in a HDM-induced acute asthma model. A. HDM/CFA-induced neutrophilic asthma in 8-week female C57BL/6 mice (n=5 per group). B. Shown are total and differential cell counts in BAL cell count. HDM, house dust mite. Treatment groups: Control (DMSO); Low DEX (0.3 mg/kg BW, i.p.); Low DEX+10 mg C3G (per mouse); Low DEX+20 mg C3G (per mouse); DEX and C3G were delivered to mice 24 h before HDM sensitization and 1 h before HDM challenge. Mice were sacrificed after HDM challenge.
# C3G attenuates neutrophilic airway inflammation in a HDM-induced acute asthma model. House dust mite (HDM), a natural allergen to which asthmatics are often sensitized, can induce neutrophilic airway inflammation, which is often associated with steroid-resistant severe asthma. The inventors have established an HDM/CFA-induced neutrophilic severe asthma model. The ability of C3G in combination with low-dose DEX (low DEX) was evaluated in alleviating neutrophilic airway inflammation in a HDM-induced steroid-resistant severe asthma model. Eight-week WT C57BL/6 female mice were sensitized subcutaneously (s.c.) with HDM (100 μg per mouse) in Complete Freund's Adjuvant (CFA) on day 0 and subsequently challenged (i.n.) with HDM (100 μg per mouse) on day 14. BAL cell counting and tissue collection were performed after 24 h of last HDM challenge. […]
# [3] = tested on: Th17-induced neutrophilic airway inflammation; experiment: Th17 cell-mediated neutrophilic asthma model; type: in vivo, C57BL/6 mice; details: C3G alone, 200 μg i.p./100 μg i.n per mouse
# Description: FIGS. 3A and 3B provide graphs showing C3G attenuates neutrophilic airway inflammation in a Th17-induced asthma model. A. HDM/CFA-induced neutrophilic asthma in 8-week female C57BL/6 mice (n=5 per group). B. Shown are total and differential cell counts in BAL cell count. HDM, house dust mite. Treatment groups: Control (DMSO); Low DEX (0.3 mg/kg BW, i.p.); C3G (200 μg i.p./100 μg i.n per mouse); Low DEX/C3G. DEX and C3G were delivered to mice 1 h before HDM challenges. Mice were sacrificed after the last HDM challenge.
# C3G attenuates neutrophilic airway inflammation in a Th17-induced asthma model. To further confirm the synergistic effect of DEX/C3G in IL-17A-driven asthma, the efficacy of C3G was tested in a TH17 cell-mediated neutrophilic asthma model (FIG. 3).
compound,measurement,setting,value
"OC[C@H]1O[C@@H](Oc2cc3c(O)cc(O)cc3[o+]c2-c2ccc(O)c(O)c2)[C@H](O)[C@@H](O)[C@@H]1O [C3G, Cyanidin-3-glucoside]",IC50,[1],6.88 µM
same,"airway inflammation (BAL cell count, inflammatory gene expression in the lung)",[2]; C3G alone,reduced to some degree
same,airway inflammation (BAL cell count),"[2]; oral C3G 20 mg/mouse in the presence of low DEX, versus 10 mg/mouse",did not improve the efficacy further
same,airway inflammation (BAL cell count),[2]; oral C3G by gavage 10 mg/mouse in the presence of low DEX,able to inhibit airway inflammation
same,neutrophilic airway inflammation (BAL cell count),[3],alleviated the inflammation dramatically
